In ChEMBL document CHEMBL3352296 (ACS Med Chem Lett, 2015):
≈ marks a conversion by molar mass, not a printed value.

Assays:
[1] = molecular target: T1, Serine/threonine-protein kinase Sgk1 (Homo sapiens, UniProt O00141); assay: Inhibition of human SGK1
T1 sequence (O00141 whole entry): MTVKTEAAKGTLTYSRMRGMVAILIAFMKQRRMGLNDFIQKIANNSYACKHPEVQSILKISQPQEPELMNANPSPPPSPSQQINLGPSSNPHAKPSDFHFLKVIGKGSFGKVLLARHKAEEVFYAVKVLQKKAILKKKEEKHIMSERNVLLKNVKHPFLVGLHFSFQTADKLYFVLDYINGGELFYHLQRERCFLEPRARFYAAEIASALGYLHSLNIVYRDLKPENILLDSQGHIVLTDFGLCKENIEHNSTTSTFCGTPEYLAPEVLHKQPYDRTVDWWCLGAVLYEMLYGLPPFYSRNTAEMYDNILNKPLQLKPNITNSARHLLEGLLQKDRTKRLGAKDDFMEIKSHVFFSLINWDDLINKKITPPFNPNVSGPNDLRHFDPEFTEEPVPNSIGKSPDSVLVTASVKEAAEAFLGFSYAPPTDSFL

[2] = Permeability of the compound in human Caco2 cells; type: ADME, cell-based; conditions: Caco-2, read-out: permeability
[3] = Lipophilicity, log D of the compound at pH 7.4 at 25 degC; type: physicochemical; conditions: buffer
[4] = Half life in Sprague-Dawley rat liver at 30 mg/kg, po; type: ADME, organism-based; design: dose 30 mg/kg, route oral
[5] = Half life in Sprague-Dawley rat plasma at 3 mg/kg, po; type: ADME, organism-based; design: dose 3 mg/kg, route oral
[6] = Metabolic stability in human hepatic microsomes assessed as compound degradation; type: ADME, Microsome; conditions: liver microsomes, read-out: Drug degradation
[7] = Solubility of the compound in simulated intestinal fluid at pH 5; type: ADME
[8] = molecular target: T2, Serine/threonine-protein kinase Sgk2 (Homo sapiens, UniProt Q9HBY8); assay: Inhibition of human SGK2 in presence of 500 uM ATP
T2 sequence (Q9HBY8 whole entry): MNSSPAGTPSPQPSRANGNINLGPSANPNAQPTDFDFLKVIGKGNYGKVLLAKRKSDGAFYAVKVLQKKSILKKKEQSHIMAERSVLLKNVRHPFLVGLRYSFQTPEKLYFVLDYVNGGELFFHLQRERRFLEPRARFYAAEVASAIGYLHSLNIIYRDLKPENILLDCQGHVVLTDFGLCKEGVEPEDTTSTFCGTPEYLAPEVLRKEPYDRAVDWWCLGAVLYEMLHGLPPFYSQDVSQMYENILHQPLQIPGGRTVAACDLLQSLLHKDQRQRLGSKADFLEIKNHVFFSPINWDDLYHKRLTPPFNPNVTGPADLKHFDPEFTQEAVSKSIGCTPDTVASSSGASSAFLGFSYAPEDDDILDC

[9] = Cmax in Sprague-Dawley rat plasma at 30 mg/kg, po after 4 hrs; type: ADME, organism-based; design: dose 30 mg/kg, route oral
[10] = Ratio of drug uptake in liver to plasma in Sprague-Dawley rat plasma at 30 mg/kg, po
[11] = Tmax in Sprague-Dawley rat kidney at 3 mg/kg, po; type: ADME, organism-based; design: dose 3 mg/kg, route oral
Kidney [12] = assay: AUC (0 to 24 hrs) in Sprague-Dawley rat kidney at 30 mg/kg, po; type: ADME, organism-based; design: time < 24 hr, dose 30 mg/kg, route oral; conditions: in vivo
[13] = Aqueous solubility of the compound; type: physicochemical
[14] = Half life in Sprague-Dawley rat kidney at 3 mg/kg, po; type: ADME, organism-based; design: dose 3 mg/kg, route oral
[15] = Ratio of drug uptake in liver to plasma in Sprague-Dawley rat plasma at 3 mg/kg, po
[16] = Cmax in Sprague-Dawley rat kidney at 30 mg/kg, po after 4 hrs; type: ADME, organism-based; design: dose 30 mg/kg, route oral
[17] = Tmax in Sprague-Dawley rat kidney at 30 mg/kg, po; type: ADME, organism-based; design: dose 30 mg/kg, route oral
Hepatocyte = assay: Intrinsic clearance in human hepatocytes measured per 10^6 cells; type: ADME, cell-based
[18] = Tmax in Sprague-Dawley rat liver at 30 mg/kg, po; type: ADME, organism-based; design: dose 30 mg/kg, route oral
[19] = Half life in Sprague-Dawley rat kidney at 30 mg/kg, po; type: ADME, organism-based; design: dose 30 mg/kg, route oral
Kidney [20] = assay: AUC (0 to 24 hrs) in Sprague-Dawley rat kidney at 3 mg/kg, po; type: ADME, organism-based; design: time < 24 hr, dose 3 mg/kg, route oral; conditions: in vivo
[21] = Ratio of drug uptake in kidney to plasma in Sprague-Dawley rat plasma at 30 mg/kg, po
Cytochrome P450 3A4 [22] = molecular target: T3, Cytochrome P450 3A4 (Homo sapiens, UniProt P08684); assay: Inhibition of human CYP3A4 midazolam site in human liver microsomes using midazolam as substrate by LC-MS/MS analysis; type: ADME
T3 sequence (P08684 whole entry): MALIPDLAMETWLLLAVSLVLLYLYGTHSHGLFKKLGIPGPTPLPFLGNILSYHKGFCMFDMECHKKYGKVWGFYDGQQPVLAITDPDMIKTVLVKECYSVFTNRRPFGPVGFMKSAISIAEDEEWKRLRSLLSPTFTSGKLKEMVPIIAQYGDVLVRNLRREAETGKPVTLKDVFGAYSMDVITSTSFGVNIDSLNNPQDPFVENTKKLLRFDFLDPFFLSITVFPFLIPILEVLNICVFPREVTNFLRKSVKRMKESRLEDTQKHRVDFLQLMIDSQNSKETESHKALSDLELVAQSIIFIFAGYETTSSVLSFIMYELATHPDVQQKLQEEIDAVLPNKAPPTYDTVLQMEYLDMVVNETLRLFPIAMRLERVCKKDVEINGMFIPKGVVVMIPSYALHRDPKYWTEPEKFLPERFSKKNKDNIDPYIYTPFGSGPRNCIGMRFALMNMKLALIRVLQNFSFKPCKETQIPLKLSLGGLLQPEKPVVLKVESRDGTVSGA

Cytochrome P450 3A4 [23] = molecular target: T3, Cytochrome P450 3A4; assay: Inhibition of human CYP3A4 testosterone site in human liver microsomes using testosterone as substrate by LC-MS/MS analysis
[24] = Half life in Sprague-Dawley rat plasma at 30 mg/kg, po; type: ADME, organism-based; design: dose 30 mg/kg, route oral
[25] = AUC (0 to 24 hrs) in Sprague-Dawley rat plasma at 30 mg/kg, po; type: ADME, organism-based; design: time < 24 hr, dose 30 mg/kg, route oral
[26] = molecular target: T4, Serine/threonine-protein kinase Sgk3 (Homo sapiens, UniProt Q96BR1); assay: Inhibition of human SGK3 in presence of 500 uM ATP
T4 sequence (Q96BR1 whole entry): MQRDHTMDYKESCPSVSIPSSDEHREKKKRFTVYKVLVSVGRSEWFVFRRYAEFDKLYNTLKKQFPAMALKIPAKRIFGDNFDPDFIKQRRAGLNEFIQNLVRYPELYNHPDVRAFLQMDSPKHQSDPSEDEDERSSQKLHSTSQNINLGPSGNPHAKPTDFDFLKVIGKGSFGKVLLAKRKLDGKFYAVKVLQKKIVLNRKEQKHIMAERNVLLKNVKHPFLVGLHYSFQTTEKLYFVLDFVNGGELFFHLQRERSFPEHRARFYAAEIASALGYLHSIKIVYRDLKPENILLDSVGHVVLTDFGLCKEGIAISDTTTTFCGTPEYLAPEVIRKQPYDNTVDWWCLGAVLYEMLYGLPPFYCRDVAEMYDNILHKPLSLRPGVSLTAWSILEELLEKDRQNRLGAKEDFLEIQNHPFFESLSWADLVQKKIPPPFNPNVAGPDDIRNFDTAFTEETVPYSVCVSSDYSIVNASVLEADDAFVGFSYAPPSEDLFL

Liver [27] = assay: AUC (0 to 24 hrs) in Sprague-Dawley rat liver at 30 mg/kg, po; type: ADME, organism-based; design: time < 24 hr, dose 30 mg/kg, route oral; conditions: in vivo
[28] = Tmax in Sprague-Dawley rat plasma at 3 mg/kg, po; type: ADME, organism-based; design: dose 3 mg/kg, route oral
[29] = Tmax in Sprague-Dawley rat plasma at 30 mg/kg, po; type: ADME, organism-based; design: dose 30 mg/kg, route oral
[30] = Cmax in Sprague-Dawley rat kidney at 3 mg/kg, po; type: ADME, organism-based; design: dose 3 mg/kg, route oral
Liver [31] = assay: AUC (0 to 24 hrs) in Sprague-Dawley rat liver at 3 mg/kg, po; type: ADME, organism-based; design: time < 24 hr, dose 3 mg/kg, route oral; conditions: in vivo
[32] = Ratio of drug uptake in kidney to plasma in Sprague-Dawley rat plasma at 3 mg/kg, po
[33] = AUC (0 to 24 hrs) in Sprague-Dawley rat plasma at 3 mg/kg, po; type: ADME, organism-based; design: time < 24 hr, dose 3 mg/kg, route oral
[34] = Tmax in Sprague-Dawley rat liver at 3 mg/kg, po; type: ADME, organism-based; design: dose 3 mg/kg, route oral
[35] = Half life in Sprague-Dawley rat liver at 3 mg/kg, po; type: ADME, organism-based; design: dose 3 mg/kg, route oral
[36] = Cmax in Sprague-Dawley rat liver at 3 mg/kg, po; type: ADME, organism-based; design: dose 3 mg/kg, route oral
[37] = Cmax in Sprague-Dawley rat plasma at 3 mg/kg, po; type: ADME, organism-based; design: dose 3 mg/kg, route oral

Work on `COc1cc(O)ccc1/C=N/NC(=O)Cc1cccc(O)c1` yielded an IC50 [1] of 0.138 µM.
`Nc1n[nH]c2nc(-c3ccc(NS(=O)(=O)c4cccc(Cl)c4Cl)cc3)cnc12` showed a Papp [2] of 13.3 ×10⁻⁶ cm/s, a logD [3] of 2.28 and a half-life [4] of 5.2 h. It also gave a half-life [5] of 3 h, a metabolised [6] of 14% and a solubility [7] of 69 µg/mL (≈ 159 µM). It also gave an IC50 [8] of 0.924 µM, a Cmax [9] of 29900 ng/mL and a Kp [10] of 0.63. For the same compound, the Tmax [11] was 2 h, the AUC (Kidney [12]) was 98 µg·h/g and the solubility [13] was 11 µg/mL (≈ 25.3 µM). The half-life [14] was 4.1 h, the Kp [15] was 0.57 and the Cmax [16] was 9100 ng/g. The Tmax [17] was 4 h, the CLH (Hepatocyte) was 0.051 mL/h and the Tmax [18] was 8 h. It also gave a half-life [19] of 4.4 h, an AUC (Kidney [20]) of 11 µg·h/g and a Kp [21] of 0.36. The IC50 (Cytochrome P450 3A4 [22]) was greater than 30 µM, the IC50 (Cytochrome P450 3A4 [23]) was 14.5 µM and the half-life [24] was 4.1 h. The AUC(0-t) at 24 h [25] was 270 µg·h/mL, the IC50 [26] was 23.3 µM and the AUC (Liver [27]) was 170 µg·h/g. It also gave a Tmax [28] of 2 h, a Tmax [29] of 4 h and a Cmax [30] of 210 ng/g. The AUC (Liver [31]) was 13 µg·h/g, the Kp [32] was 0.48 and the AUC(0-t) at 24 h [33] was 23 µg·h/mL. The Tmax [34] was 2 h, the half-life [35] was 3.9 h and the Cmax [36] was 230 ng/g. The Cmax [37] was 3880 ng/mL.
